From patent publication US12195482B1 (Arcus Biosciences, Inc., priority 2022, dated 2025)

Experiments:
[1] = biological target: T1, Axl (Homo sapiens, UniProt P30530); assay: Biochemical potency, HTRF KinEASE-TK kinase assay; set-up: purchased Invitrogen; conditions: 5 nM AXL, 700 μM ATP
T1 sequence (P30530 26-894): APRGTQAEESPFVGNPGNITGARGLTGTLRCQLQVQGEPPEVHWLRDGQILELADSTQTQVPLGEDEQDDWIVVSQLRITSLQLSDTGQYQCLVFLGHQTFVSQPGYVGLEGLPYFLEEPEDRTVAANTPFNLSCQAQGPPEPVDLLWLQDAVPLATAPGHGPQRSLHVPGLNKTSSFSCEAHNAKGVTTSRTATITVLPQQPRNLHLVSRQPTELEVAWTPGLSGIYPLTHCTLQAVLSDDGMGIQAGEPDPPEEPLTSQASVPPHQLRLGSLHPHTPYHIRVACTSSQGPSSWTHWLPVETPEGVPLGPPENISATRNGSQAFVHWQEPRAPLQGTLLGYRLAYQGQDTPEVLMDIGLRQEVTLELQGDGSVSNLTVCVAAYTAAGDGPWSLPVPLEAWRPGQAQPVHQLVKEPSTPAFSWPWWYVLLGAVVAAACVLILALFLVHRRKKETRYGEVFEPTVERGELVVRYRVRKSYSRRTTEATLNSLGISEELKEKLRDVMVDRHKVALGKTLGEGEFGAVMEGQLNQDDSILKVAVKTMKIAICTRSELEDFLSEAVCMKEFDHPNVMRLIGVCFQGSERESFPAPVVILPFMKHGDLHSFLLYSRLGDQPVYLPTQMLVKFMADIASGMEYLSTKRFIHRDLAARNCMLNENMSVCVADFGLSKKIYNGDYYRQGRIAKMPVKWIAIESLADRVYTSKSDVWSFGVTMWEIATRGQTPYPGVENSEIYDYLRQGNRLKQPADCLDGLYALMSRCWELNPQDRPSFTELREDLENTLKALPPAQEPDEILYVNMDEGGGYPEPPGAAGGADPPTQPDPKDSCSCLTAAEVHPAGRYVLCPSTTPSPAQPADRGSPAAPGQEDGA
Summary of the method: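 Steps: compound plus kinase, 1 h RT; add ATP (700 µM final) and biotin-TK substrate (800 nM final); run 2 h RT; stop into streptavidin-XL665/anti-phospho cryptate detection mix, 1 h; read 665/620. AXL at 5 nM, TYRO3 and MER at 1 nM.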

[2] = biological target: T2, p-AXL (Homo sapiens, UniProt P30530); assay: Axl phosphorylation inhibition ELISA in HEK293T cells transfected with NanoLuc-tagged AXL; format: cell-based; conditions: 1 h compound incubation, media (OptiMEM)
T2 construct: expressed in transfected cells; host or cells: HEK293T
T2 sequence (P30530 26-894): T1 sequence (P30530 26-894)
Summary of the method: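 Phospho-AXL detected by luminescence of NanoLuc tag after capture of cell lysate on biotinylated anti-phospho-tyrosine mAb plates (2 h). Lysates came from transiently transfected HEK293T cells treated 1 h at 37° C with serial 2-fold dilutions (22 points). IC50 by standard 4-parameter logistic fitting.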

Compound	IC50 [1] [nM]	IC50 [2] [nM]
COCCOc1cccnc1-c1ccc(-c2n[nH]c3ncc(-c4ccc5c(c4)CC[C@@H](N4C6COCC4C6)CC5)cc23)cc1 [Example 180, 6-[(7S)-2-(3-{4-[3-(2-Methoxyethoxy)pyridin-2-yl]phenyl}-1H-pyrazolo[3,4-b]pyridin-5-yl)-6,7,8,9-tetrahydro-5H-benzo[7]annulen-7-yl]-3-oxa-6-azabicyclo[3.1.1]heptane]	< 100	< 100
Cn1ccnc1-c1ccc(-c2n[nH]c3ncc(-c4ccc5c(c4)CC[C@@H](N4C6COCC4C6)CC5)cc23)cc1 [Example 111, 6-[(7S)-2-{3-[4-(1-Methyl-1H-imidazol-2-yl)phenyl]-1H-pyrazolo[3,4-b]pyridin-5-yl}-6,7,8,9-tetrahydro-5H-benzo[7]annulen-7-yl]-3-oxa-6-azabicyclo[3.1.1]heptane]	< 100	< 100
O=C(c1cccnc1-c1ccc(-c2c[nH]c3ncc(-c4ccc5c(c4)CC[C@@H](N4C6COCC4C6)CC5)cc23)cc1)N1CCCC1 [Example 171, 6-[(7S)-2-(3-{4-[3-(Pyrrolidine-1-carbonyl)pyridin-2-yl]phenyl}-1H-pyrrolo[2,3-b]pyridin-5-yl)-6,7,8,9-tetrahydro-5H-benzo[7]annulen-7-yl]-3-oxa-6-azabicyclo[3.1.1]heptane]	< 100	< 100
CCc1cccnc1-c1ccc(-c2c[nH]c3ncc(-c4ccc5c(c4)CC[C@@H](N4C6COCC4C6)CC5)cc23)cc1 [Example 183, 6-[(7S)-2-{3-[4-(3-Ethylpyridin-2-yl)phenyl]-1H-pyrrolo[2,3-b]pyridin-5-yl}-6,7,8,9-tetrahydro-5H-benzo[7]annulen-7-yl]-3-oxa-6-azabicyclo[3.1.1]heptane]	< 100	< 100
